Key:
[1] = tested on: human lung adenocarcinoma cell A-549; experiment: Growth inhibition of A-549 cells, SRB protein staining assay; format: cell-based; conditions: read-out: Growth inhibition effect to A-549 cell strain
mice leukemia cell P388 = experiment: Growth inhibition of P388 cells, MTT assay; format: cell-based; conditions: Mus musculus, read-out: Growth inhibition effect to P388 cell strain
How it was run: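 P388 cells seeded in log phase, 24 h before serial dilutions of compound were added in triplicate; exposure 48 h at 37 °C, 5% CO2. MTT added for 4 h, formazan solubilised with SDS–isobutanol–HCl overnight, absorbance read at 570 nm; % growth inhibition calculated relative to untreated control cells.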

S-180 sarcoma [2] = experiment: In vivo tumor growth inhibition, S-180 sarcoma in mice
Method: S-180 sarcoma developed for 7-11 days and in good growth trend was homogenated into cell suspension. The cell suspension was inoculated subcutaneously into right armpit of female KM mice (18˜22 g) (about 1.0−2.5×10^6 cells/mouse). After 24 h, the mice were grouped in random with compounds administrated by i.p. injection. From the next day on, the mice were given serial dosages. After treatment, animals were killed, and solid tumors were removed and weighed after the body weight were weighed. The inhibition rate was calculated as follows, and T-test was carried out: [(Average tumor weight of NS group−Average tumor weight of test group)/Average tumor weight of NS group]×100%.

H22 hepatoma = experiment: In vivo tumor inhibition, H22 hepatoma
[3] = Body weight and deaths of S-180 bearing mice; format: in vivo
tumor cell cycle = experiment: Tumor cell cycle arrest (further studies); format: cell-based; conditions: significantly dose-dependent
tumor cell = experiment: Tumor cell apoptosis (further studies); format: cell-based
DNA = DNA double strand break (further studies)
S-180 sarcoma [4] = experiment: In vivo tumor growth inhibition, S-180 sarcoma in mice; remark: listed apart in the source

SMILES: CN(C)CCN1C(=O)c2cccc3c2c(cc2c4ccccc4sc32)C1=O [compound 16, N-(N′,N′-dimethylaminoethyl)benzo[b]thieno[2,1-c]naphthalimide]
- inhibition at 100 µM ([1]; A549, 10^−4 M): 97.1%
- inhibition at 10 µM ([1]; A549, 10^−5 M): 96.6%
- inhibition at 1 µM ([1]; A549, 10^−6 M): 85.2%
- inhibition at 0.1 µM ([1]; A549, 10^−7 M): 72.2%
- inhibition at 0.01 µM ([1]; A549, 10^−8 M): 55.3%
- inhibition at 100 µM (mice leukemia cell P388; 10^−4 M): 100%
- inhibition at 10 µM (mice leukemia cell P388; 10^−5 M): 95.9%
- inhibition at 1 µM (mice leukemia cell P388; 10^−6 M): 68.2%
- inhibition at 0.1 µM (mice leukemia cell P388; 10^−7 M): 21.4%
- inhibition at 0.01 µM (mice leukemia cell P388; 10^−8 M): 13.8%
- Weight of tumor (g) mean ± SD (S-180 sarcoma [2]; S-180 sarcoma, 12.5 mg/kg i.p): 1.14 ± 0.29 g
- Tumor growth inhibition % (S-180 sarcoma [2]; S-180 sarcoma, 25 mg/kg i.p): 71.6%
- Weight of tumor (g) mean ± SD (S-180 sarcoma [2]; S-180 sarcoma, 25 mg/kg i.p): 0.46 ± 0.24 g
- activity against mice S180 sarcoma (in words) (S-180 sarcoma [2]; i.p. injection): active
- tumor inhibition (in words) (H22 hepatoma; 7.5 mg/kg): not active
- tumor inhibition rate (H22 hepatoma; i.p. 15 mg/kg): 51.0%
- tumor inhibition rate (H22 hepatoma; i.p. 30 mg/kg): 72.6%
- Weight of mice (g) Day 7 ([3]; 12.5 mg/kg i.p): 26.9 g
- Weight of mice (g) Day 7 ([3]; 25 mg/kg i.p): 18.6 g
- Weight of mice (g) Day 7 ([3]; 50 mg/kg i.p): 12.9 g
- tumor cell cycle arrest (tumor cell cycle): arrest tumor cell cycle in G2/M phase
- tumor cell apoptosis (tumor cell): trigger tumor cell apoptosis
- DNA double strand break (DNA): induce the broken of DNA double strand
- Tumor growth inhibition % (S-180 sarcoma [4]; 12.5 mg/kg i.p): 29.6%
- Tumor growth inhibition % (S-180 sarcoma [4]; 50 mg/kg i.p): 95.6%
- Weight of tumor (g) mean ± SD (S-180 sarcoma [4]; 50 mg/kg i.p): 0.08 ± 0.04 g

Source: patent US7541463B2, “Sulfur-containing naphthalimide derivatives” (East China University of Science and Technology, priority 2003, dated 2009)
